Measured values from patent US9006221B2, “Method of modulating ship activity” (H. Lee Moffitt Cancer Center and Reserach Institute, Inc., priority 2008, dated 2015).

Tests used:
SHIP1 = molecular target: T1, SHIP1 (Mus musculus, UniProt Q9ES52); test: Fluorescence polarization (FP) assay of SHIP1 enzymatic activity; assay type: biochemical; details: 0.1 μg of recombinant SHIP1, FP assay
T1 construct: The asterisk in lanes 1 and 3 indicates the ˜145 kD full-length SHIP protein; His tag (C); made in house; host or cells: E. coli Rosetta-Gami 2 (DE3) pLys
T1 sequence (Q9ES52 1-1191): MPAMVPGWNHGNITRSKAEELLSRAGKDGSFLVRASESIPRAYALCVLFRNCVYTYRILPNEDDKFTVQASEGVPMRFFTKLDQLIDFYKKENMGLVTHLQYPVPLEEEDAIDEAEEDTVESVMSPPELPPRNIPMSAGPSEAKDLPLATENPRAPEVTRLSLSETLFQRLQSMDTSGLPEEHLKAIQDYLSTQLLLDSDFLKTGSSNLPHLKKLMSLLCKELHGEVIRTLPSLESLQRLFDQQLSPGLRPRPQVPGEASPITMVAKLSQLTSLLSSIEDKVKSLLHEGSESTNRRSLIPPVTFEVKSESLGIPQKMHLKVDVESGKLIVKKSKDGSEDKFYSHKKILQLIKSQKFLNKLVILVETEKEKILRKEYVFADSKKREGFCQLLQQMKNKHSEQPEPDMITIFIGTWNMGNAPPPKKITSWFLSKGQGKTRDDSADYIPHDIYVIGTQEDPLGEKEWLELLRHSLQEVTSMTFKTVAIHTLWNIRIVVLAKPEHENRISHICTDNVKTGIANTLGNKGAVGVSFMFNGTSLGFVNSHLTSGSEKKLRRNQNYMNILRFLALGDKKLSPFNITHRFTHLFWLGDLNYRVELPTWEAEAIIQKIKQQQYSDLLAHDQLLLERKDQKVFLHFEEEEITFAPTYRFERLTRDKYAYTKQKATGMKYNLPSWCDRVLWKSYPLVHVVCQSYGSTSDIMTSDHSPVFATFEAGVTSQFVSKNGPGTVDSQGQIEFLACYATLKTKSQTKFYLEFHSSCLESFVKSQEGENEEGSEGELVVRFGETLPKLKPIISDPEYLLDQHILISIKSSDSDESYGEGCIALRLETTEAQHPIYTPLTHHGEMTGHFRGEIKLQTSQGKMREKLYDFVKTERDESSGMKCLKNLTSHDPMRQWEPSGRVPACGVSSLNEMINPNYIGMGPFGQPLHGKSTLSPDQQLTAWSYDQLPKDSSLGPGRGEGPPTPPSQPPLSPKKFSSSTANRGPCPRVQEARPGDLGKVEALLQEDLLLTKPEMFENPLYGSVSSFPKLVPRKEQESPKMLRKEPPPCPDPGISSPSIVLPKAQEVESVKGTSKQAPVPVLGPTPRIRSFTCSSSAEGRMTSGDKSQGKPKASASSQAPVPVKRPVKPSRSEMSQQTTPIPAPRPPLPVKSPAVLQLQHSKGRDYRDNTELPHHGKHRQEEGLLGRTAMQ

[1] = system: FoxP3+CD4+CD25+ Treg cells; test: FACS quantitation of FoxP3+CD4+CD25+ Treg cells in spleen and lymph node of treated mice; assay type: in vivo, mouse; details: daily injection at 125 μM for 7 days
Experimental: FACS quantitation of Mac1^+Gr1^+ Myeloid-Derived Suppressor Cells (Mac1^+Gr1^+ MySC) (A,B) and FoxP3^+CD4^+CD25^+ Treg cells (C,D) in spleen and lymph node of C57BL6 mice treated with NSC13480, vehicle or non-manipulated mice (Normal). ***p<0.001; *p<0.05.
In addition, both donor and host Treg cells can also limit or abrogate GvHD. […] (Paraiso, K. H., et al. 2007. J Immunol 178:2893). […] Adult mice were treated for 7 days with a daily injection of NSC13480 at 125 μM. The frequency of MySC and Treg cells was tested in the spleens of mice treated with NSC13480, the vehicle used for delivery of NSC 13480 and normal, untreated mice.
Antibody staining and flow cytometry (Examples 1-6): Anti-CD16/32 was co-incubated with the samples to block Fc receptor binding. Antibodies used for staining included: NK1.1 (PK136); CD3e (145-2C11); Ly49G2 (4D11); Gr-1 (RB6-8C5); Mac-1(M1/70); CD11c (HL3); CD4 (GK1.5); CD25 (PC61) and were obtained from BD Pharmingen (San Jose, Calif.). FoxP3 (FJK-16s) was purchased from eBioScience (San Diego, Calif.). All samples were acquired on a FACSCalibur and analyzed using FlowJo8.7.1. For viable staining, dead cells were excluded from the analysis following cytometer acquisition of data by exclusion of the 7AAD dye. […]

SMILES: CC(C)CCC[C@@H](C)[C@H]1CC[C@H]2[C@@H]3CC[C@H]4C[C@H](N)CC[C@]4(C)[C@H]3CC[C@]12C [NSC23922, (3R,5S,8R,9S,10S,13R,14S,17R)-10,13-dimethyl-17-[(2R)-6-methylheptan-2-yl]-2,3,4,5,6,7,8,9,11,12,14,15,16,17-tetradecahydro-1H-cyclopenta[a]phenanthren-3-amine]
- inhibition at 10 µM (SHIP1): 50%

SMILES: OC(c1cc(-c2ccccc2)nc2c1ccc1ccccc12)C1CCCCN1 (stereo not drawn) [NSC13480, (2-phenylbenzo[h]quinolin-4-yl)-piperidin-2-ylmethanol]
- number of Treg cells ([1]; lymph node): increased significantly
- number of Treg cells ([1]; spleen): increased significantly
